Series [1] in a line: in vitro. As to conditions: human.
The test system of series [2] is respiratory syncytial virus (RSV) strain Long. Put plainly: microbe, parasite or virus in culture. As to conditions: human respiratory syncytial virus, HEp-2, 144 h.
Experimental: The assay measures RSV virus-induced CPE in HEp-2 cells using cell viability as the end point.
Two vials of RSV (strain Long) containing 1×10^7 pfu/mL was thawed using an Eppendorf thermomixer for 13 min at 15° C., with shaking at 350 rpm. […] The cells were incubated for 18-20 h at 37° C., 5% CO2, 90% relative humidity. The medium was aspirated and the cells washed with 10 mL PBS without Mg^2+ or Ca^2+. Cells were harvested from flasks using 0.25% trypsin-EDTA. The cells were resuspended in a freezing medium of 95% fetal calf serum and 5% DMSO to a final cell density of 2×10^6 cells/mL. One mL aliquots of this virus infected cell suspension were dispensed to cryovials and cells were rate frozen to −80° C. Frozen infected cells were then transferred to −150° C. for long term storage.
Test compounds were evaluated by measuring their antiviral activity, cell toxicity, and selectivity. Test compounds were serially diluted in a plate to plate matrix or “stacked plate” matrix. All 320 compounds in a source plate were diluted together resulting in a 10 point dose response dilution series. It was visualized as a serial dilution series proceeding vertically through a stack of plates with the high dose plate on top and the low dose plate on the bottom.
Cells were harvested and resuspended to 80,000 cells per ml in Complete DMEM/F12.
Cells were thawed in a room temperature water bath with gentle agitation. The tube was inverted 5-10. Cells were diluted to 80,000 cells per ml by adding the contents of the vial to 24 ml of cold (4° C.) media.
Twenty five ul of uninfected HEp-2 cells were plated in the cell control wells. Frozen infected cells were combined with uninfected HEp-2 cells at a 1:100 ratio. Twenty five ul of the cell mixture was added to the virus control and compound wells. All cell plating was conducted using a Matrix WellMate and cells were maintained at room temperature with stirring during the plating process. The assay plates were incubated for six days at 37° C., 5% CO2 and 90% relative humidity.
Following the six day incubation period, the assay plates were equilibrated to room temperature for 30 min and an equal volume (30 μL) of Cell Titer-Glo reagent (Promega Inc.) was added to each well using a WellMate (Matrix, Hudson, N.H.) and plates were incubated for an additional 10 min at room temperature. At the end of the incubation, luminescence was measured using a Perkin Elmer Envision™ multi-label reader (PerkinElmer, Wellesley, Mass.) with an integration time of 0.1 s.
Data was analyzed using ActivityBase software (IDBS, Inc, Guilford, UK). thirty two control wells containing cells only and twenty four wells containing cells and virus were included on each assay plate and used to calculate Z′ value for each plate and to normalize the data on a per plate basis. […] Eight ribavirin positive control wells were included on each plate for quality control purposes, but were not used in Z′ calculations. […] In the toxicity assay, results are described as percent viability and the calculation is the same.
An EC50 (for CPE inhibition) and IC50 (for cell viability) were calculated for each substance using the 4 parameter Levenburg-Marquardt algorithm with parameter A locked at 0 and parameter B locked at 100. Standard deviation, normalized chi2 and hill slope were used to evaluate the curves. Values were not extrapolated beyond the tested range of concentrations.

pEC50: −log10 of the molar value.

The pEC50 is the EC50 on a negative log10 scale, so that one unit is a factor of ten. Higher therefore signals a low EC50. `O=c1c(F)cn(Cc2ccc([N+](=O)[O-])cc2)c(=O)n1Cc1ccc([N+](=O)[O-])cc1` [AB00373945] returned a CC50 in series [1] greater than 50 µM. For the same compound, in series [2], the pEC50 is 4.88.

In general, EC50 refers to the concentration giving half of the maximal effect. A high value points to lower potency in that assay. Take `Cc1cccc(-n2c(Cc3cccc([N+](=O)[O-])c3)nc3ccccc3c2=O)c1` [AB00297463]: the CC50 at 6 days in series [1] was greater than 25 µg/mL. In series [2], this compound showed an EC50 of 16.3 µg/mL.

`N#CCCN1CCN(C(=S)c2ccc(-c3cccc(Cl)c3)o2)CC1` [AB00294368]: the CC50 in series [1] is greater than 25 µg/mL. Besides, it took 15 µg/mL to reach a half-maximal effect in series [2] (EC50).

Consider `C=CCN1C(=O)C2(C(C#N)=C(N)Oc3ccccc32)C(C(C)=O)=C1C` (stereo not drawn) [AB00364858], for which the CC50 at 6 days in series [1] is greater than 25 µg/mL. In series [2], this compound yielded an EC50 of 21.2 µg/mL.

`O=S(=O)(c1cc(Cl)c(O)c(Cl)c1)c1cc(Cl)c(O)c(Cl)c1` [AB00275543]: the CC50 at 6 days in series [1] was greater than 25 µg/mL. In series [2], this compound had an EC50 of 16.2 µg/mL.

With `Nc1ccc2c(c1)Cc1ccccc1-2` [AB00374695], the CC50 in series [1] is greater than 50 µM. The negative logarithm of the EC50 (pEC50) in series [2] was 4.33.

`CNC(=S)NNC(=O)COc1ccccc1C` [AB00370002]: the CC50 in series [1] was greater than 25 µg/mL. The compound further gave an EC50 in series [2] of 22 µg/mL.

In series [1], `COc1c2ccoc2nc2c(OC)cccc12` [AB00276394] returned a CC50 greater than 25 µg/mL. This compound also came in with a half-maximal effective concentration (EC50) in series [2] of 15.2 µg/mL.

For `O=Cc1cn(CC(=O)N2CCc3ccccc3C2)c2ccc(Br)cc12` [AB00302396], the CC50 in series [1] was greater than 25 µg/mL. In series [2], this compound yielded an EC50 of 23.8 µg/mL.

Values taken from patent publication US20130085133A1, “ANTI-VIRAL TREATMENT AND ASSAY TO SCREENFOR ANTI-VIRAL AGENT” (Sourthern Research Institute Office of Commercialization …, priority 2010, published 2013).
